# System: TNBS-induced colitis
# Experiment: TNBS-induced colitis in Gpbar1+/+ and Gpbar1-/- mice
# Type: in vivo
# Conditions: for development and severity of colitis assessed by body weight lost, CDAI and histological sections: 30 mg/kg daily by o.s., FIG. 2A-C
# Description: Because macrophages are one of the most abundant leucocytes in the intestinal mucosa and are implicated in the pathogenesis of IBDs (Inflammatory bowel diseases), the effect of PBT110B was investigated in a TNBS-induced colitis (2,4,6-trinitrobenzene sulfonic acid-induced) in Gpbar1+/+ and Gpbar1-/- mice. Gpbar1+/+ and Gpbar1-/- mice were treated with TNBS alone or in combination PBT110B (30 mg/kg). […] In addition, the expression of pro- and anti-inflammatory cytokines in the colon of these animals (FIG. 3) was analyzed. Gpbar1^+/+ and Gpbar1^-/- mice were treated with TNBS alone or in combination PBT110B (30 mg/kg). Values are normalized relative to Gapdh mRNA and are expressed as mean±SEM (n=5); ^#p<0.05. GPBAR1 null mice on C57BL/6NCrl background, and C57BL/6NCrl congenic littermates were originally donated by Dr. […] (Schering-Plough Research Institute, Kenilworth). The colonies were maintained in the animal facility of University of Perugia. Mice were housed under controlled temperatures (22° C.) and photoperiods (12:12-hour light/dark cycle), allowed unrestricted access to standard mouse chow and tap water and allowed to acclimate to these conditions for at least 5 days before inclusion in an experiment. The study was conducted in agreement with the Italian law and the protocol was approved by ethical committee of University of Perugia and by a National Committee of Italian Ministry of Health permit n° 1126/2016-PR. The health and body conditions of the animals were monitored daily by the veterinarian in the animal facility. The study protocol caused minor suffering, however, animals that lost more than 25% of the initial body weight were euthanized. Colitis was induced in mice by TNBS. Mice were fasted for 12 h (day -1) and the day after (day 0) mice were anesthetized, and a 3.5 F catheter inserted into the colon such that the tip was 3 cm proximal to the anus. To induce colitis, 1 mg of 2,4,6-trinitrobenzenesulfonic acid TNBS (Sigma Chemical Co, St Louis, Mo.) in 50% ethanol was administered via catheter into the lumen using a 1 ml syringe (injection volume of 200 μL); control mice received 50% ethanol alone. Animals were monitored daily. At the end of the experiments, the surviving mice were sacrificed and the colon was excised, weighed, and evaluated for macroscopic damage. In some groups of mice, PBT110B dissolved in nitrocellulose 1% was administered daily also by o.s. at the concentration of 30 mg/kg of body weight The severity of colitis was measured each day for each mouse by assessing the body weight, the fecal blood and stool consistency. Each parameter was scored from 0 to 4 and the sum represents the Colitis Disease Activity Index (CDAI). The scoring system was as following: percent of body weight loss: none=0; 1-5%=1; 5-10%=2; 10-20%=3; >20%=4. Stool consistency: normal=0; soft but still formed=1; very soft=2; diarrhea=3; liquid stools that stick to the anus or anal occlusion=4. Fecal blood: none=0; visible in the stool=2; severe bleeding with fresh blood around the anus and very present in the stool=4. Samples of distal colon (2-3 cm from the anus) were fixed in buffered formalin, cut into 5-μm-thick sections (150 μm between each section, four to eight per fragment per colon), and stained with H&E. Colon samples were immediately frozen in liquid nitrogen and stored at -80° C. until used, mechanically homogenated with the aid of a pestle, and the obtained materials re-suspended in 1 ml of Trizol (Thermo ScientificTM). […]
# [1] = wild-type mice, 30 mg/kg, Real-Time PCR, FIG. 3
compound,measurement,setting,value
"CC[C@]1(O)C[C@H]2[C@@H]3CC[C@H]([C@H](C)CC#N)[C@@]3(C)CC[C@@H]2[C@@]2(C)CC[C@@H](O)C[C@@H]12 [PBT110B, 3α,6α-dihydroxy-6β-ethyl-24-nor-5β-cholan-23-nitrile]","development and severity of colitis assessed by body weight lost, CDAI and histological sections",Gpbar1+/+ mice,attenuated
same,"development and severity of colitis assessed by body weight lost, CDAI and histological sections",Gpbar1-/- mice,failed to do the same
same,"beneficial effects on colon cytokine expression (pro-inflammatory cytokines, IL-10)","mice lacking the receptor (Gpbar1-/-), 30 mg/kg, FIG. 3",lost
same,"expression of pro-inflammatory cytokines (Il-6, Il-1β, TNF-α) in the colon",[1],reducing
same,expression of the anti-inflammatory cytokine IL-10 in the colon,[1],increasing
